Test results reported in US20180002400A1, “SHORT PEPTIDE-BASED THERAPEUTIC AGENT AND MEDICINAL COMPOSITION INCLUDING THE SAME FOR INHIBITING ACTIVITIES OF CANCER CELLS” (NATIONAL CHENG KUNG UNIVERSITY, priority 2015, published 2018).

Assays:
Assay type in all cases: cell-based, human
breast cancer MB231 cell = assay: MTT cell viability (cell toxicity) of cancer cells co-cultured with short peptides; conditions: MB231 co-cultured with increasing amount of short peptide for 24 hours or 48 hours; FIG. 1B
Procedure: After the human breast cancer MB231 cell of Example 2 was co-cultured with the short peptides RI37, GI40 and KT44 of Example 1 for 24 hours or 48 hours, the cell toxicity was analyzed by using MTT [3-(4,5-dimethylthiazol-2-yl)-2,5-[…] tetrazolium bomide] (Sigma). The transparent and colorless tetrazolium salt of MTT was degraded by mitochondrial dehydrogenase in live cells and converted to blue formazan crystals. Based on the cell viability of the cell in the absence of the short peptides of Example 1 as 100%, the influence of the cancer cell proliferation could be determined by using the short peptides.

[1] = test system: drug-resistant breast cancer MB231R (MBR) cells; assay: Cancer cell migration (Boyden chamber) induced by euPTX3
Procedure: [The procedure below names another cell line; the source lists this cell line under the same test.] (§1) The cell density 5×10^4 cells/well of the breast cancer MB231 cell, the lung cancer A549 cell and the nasopharyngeal cancer HONE1 cell were seeded into each upper insert of 24-well plate (containing 8-μm pore insert per well; BD Biosciences) for 19 hours, and each lower well was added with the short peptides RI37, GI40 and KT44 (10 μg/mL or 225 nM of the short peptide) and the polypeptide euPTX3 (2.5 μg/mL) of Example 1, for evaluating the influence of migration of the cancer cell of Example 2 using several short peptides of Example 1.
(§2) The cell density 5×10^4 cells/well of the breast cancer MB231 cell, the lung cancer A549 cell and the nasopharyngeal cancer HONE1 cell were seeded into each upper insert of Boyden chamber for 3 hours of cultivation.
(§3) And then, the medium in each upper insert was replaced by serum-free medium, and the medium in each lower well was added with the short peptides RI37, GI40, KT44 and the polypeptide euPTX3 of Example 1. The cells inside each upper insert were wiped with cotton swabs and removed after 16 hours of cultivation. Remaining cells that had migrated to the bottom of the insert membrane were stained by 4′,6-diamidino-2-phenylindole (DAPI; Invitrogen) and calculated under fluorescence microscopy with 200-fold magnification.

lung cancer A549 cell [2] = assay: as above; conditions: A549; short peptide 10 μg/mL + euPTX3 2.5 μg/mL; FIG. 2C left panel
Procedure: as §1, §2, §3

[3] = test system: nasopharyngeal cancer HONE1 cell; assay: as above; conditions: HONE1; short peptide 10 μg/mL + euPTX3 2.5 μg/mL; FIG. 3C left panel
Procedure: as §1, §2, §3

lung cancer A549 cell [4] = assay: Cancer cell invasion (matrigel-coated insert) induced by euPTX3; conditions: A549; short peptide 10 μg/mL + euPTX3 2.5 μg/mL; FIG. 2C right panel
Procedure: (§4) The cell density 5×10^4 cells/well of the breast cancer MB231 cell, the lung cancer A549 cell and the nasopharyngeal cancer HONE1 cell were seeded into each upper insert of 24-well plate (containing 8-μm pore insert per well; BD Biosciences), the upper insert and the lower well were separated by the polyethelene terephthalate membrane coated with matrigel (purchased from BD Bioscience), and cultured for 3 hours.
as §3, with “Next,” for “And then,”, “euPTX3 and pPTX3/C” for “euPTX3”, “4′, 6-diamidino-2-phenylindole” for “4′,6-diamidino-2-phenylindole”

[5] = test system: nasopharyngeal cancer HONE1 cell; assay: as above; conditions: HONE1; short peptide 10 μg/mL + euPTX3 2.5 μg/mL; FIG. 3C right panel
Procedure: as §4
as §3, with “Next,” for “And then,”, “euPTX3 and pPTX3/C” for “euPTX3”, “4′, 6-diamidino-2-phenylindole” for “4′,6-diamidino-2-phenylindole”

[6] = MB231R (MBR), identical molecular number: euPTX3 2.5 μg/mL, RI37 3.7 μg/mL, GI40 4 μg/mL, pPTX3/C 10 μg/mL, FIG. 5B left panel
[7] = breast cancer cells, short peptide 10 μg/mL + euPTX3 2.5 μg/mL, FIG. 1E left panel

| Substance | cell viability (breast cancer MB231 cell) | migrated cell numbers induced by the polypeptide euPTX3 [1, 6] | migrated cell numbers induced by the polypeptide euPTX3 [1, 7] | migrated cell numbers induced by the polypeptide euPTX3 (lung cancer A549 cell [2]) | migrated cell numbers induced by the polypeptide euPTX3 [3] | invasive cell numbers induced by the polypeptide euPTX3 (lung cancer A549 cell [4]) | invasive cell numbers induced by the polypeptide euPTX3 [5] |
| --- | --- | --- | --- | --- | --- | --- | --- |
| GI40: artificially synthetic short peptide having the amino acid sequence listed as SEQ ID NO:2, designed from human PTX3 (NP_002843.2) (GGGFDETLAFSGRLTGFNIWDSVLSNEEIRETGGAESCHI; The 320th amino acid to 359th amino acid of Human sapiens PTX3 (GI40)) | no significant influence on the cell viability | could effectively inhibit the migrated cell numbers | could effectively inhibit the migrated cell numbers | could effectively inhibit the migrated cell numbers | could effectively inhibit the migrated cell numbers | could effectively inhibit the invasive cell numbers | could effectively inhibit the invasive cell numbers |
| KT44: artificially synthetic peptide having the amino acid sequence listed as SEQ ID NO:3 (KLVAEAMVSLGRWTHLCGTWNSEEGLTSLWVNGELAATTVEMAT; The 255th amino acid to 298th amino acid of Human sapiens PTX3 (KT44)) | no significant influence on the cell viability |  | could not inhibit the migrated cell numbers | could not inhibit the migrated cell numbers | could not inhibit the migrated cell numbers | could not inhibit the invasive cell numbers | could not inhibit the invasive cell numbers |
| RI37: artificially synthetic short peptide having the amino acid sequence listed as SEQ ID NO:1, designed from human PTX3 (NP_002843.2) (RPMRLESFSACIWVKATDVLNKTILFSYGTKRNPYEI; The 200th amino acid to 236th amino acid of Human sapiens PTX3 (RI37)) | no significant influence on the cell viability | could effectively inhibit the migrated cell numbers | could effectively inhibit the migrated cell numbers | could effectively inhibit the migrated cell numbers | could effectively inhibit the migrated cell numbers | could effectively inhibit the invasive cell numbers | could effectively inhibit the invasive cell numbers |
